The subject of experiment [1] is RH-18 (Rhabdomyosarcoma). Nature of the experiment: Bliss excess, mean over the matrix (fraction); higher = more synergy. The gist of the method:
(§1)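 Cell lines in DMEM/F12 or RPMI with 10% FBS were plated in 1536-well plates, held 24 hours at 37°C, 5% CO2, then given two-drug dose matrices for 72 hours (DMSO typically 0.2%). Viability was read by CellTiter-Glo 2.0 luminescence and scaled as inhibition from 0 (vehicle wells) to 1 (blank wells). Combination Emax is the second-highest inhibition in the matrix; Bliss excess is observed combination effect minus expected EA + EB − EA·EB, EA and EB being single-agent effects.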

Experiment [2] relates to SIMA (Neuroblastoma). The description is as above. The gist of the method: as §1
Experiment [3] deals with RH-18 (Rhabdomyosarcoma). Nature of the experiment: combination Emax (second highest fraction inhibited in the dose matrix, 72 h); higher = more inhibition; extreme values may be limits of the assay. The gist of the method: as §1
The subject of experiment [4] is SIMA (Neuroblastoma). The experiment is described as above. The gist of the method:
as §1

For experiment [5], the system named is RKO (Colorectal Carcinoma). Described as above. The gist of the method: as §1
The subject of experiment [6] is EN (Endometrial Carcinoma). The description is as above. In short, it runs like this: as §1
The subject of experiment [7] is SUP-T1 (T-Lymphoblastic Leukemia). The description is as above. The gist of the method: as §1
Experiment [8] has as its system TE-4 (Esophageal Squamous Cell Carcinoma). Described as above. In short, it runs like this: as §1
Experiment [9] has as its system PCI-30 (Head and Neck Carcinoma). The description is as above. The gist of the method: as §1
In experiment [10] the test system is SH-4 (Melanoma). The experiment is described as above. In short, it runs like this:
as §1

Experiment [11] concerns LoVo (Colorectal Carcinoma). Described as above. In short, it runs like this:
as §1

In experiment [12] the test system is SW1116 (Colorectal Carcinoma). Described as above. The gist of the method: as §1

The values below come from the supplement of paper PMC11061612.
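For Bliss excess, mean over the matrix in this document: after 72 h of two-drug dosing.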

Take `C=CCn1c(=O)c2cnc(Nc3ccc(N4CCN(C)CC4)cc3)nc2n1-c1cccc(C(C)(C)O)n1` [AZD1775] + O=C(c1cc(Cc2n[nH]c(=O)c3ccccc23)ccc1F)N1CCN(C(=O)C2CC2)CC1 [Olaparib] (first compound max 1 µM, partner max 10 µM): the Bliss excess in experiment [1] was -0.0018; in experiment [2] it was 0.0028. Moreover, the “combination Emax” value in experiment [3] worked out at 0.401; in [4], 0.721; in experiment [5], 0.719; in experiment [6], 0.531; in experiment [7], 0.879; in experiment [8], 0.366. Moreover, the “combination Emax” value stood at 0.374 in experiment [9], 0.492 in experiment [10], 0.781 in experiment [11] and 0.343 in [12].
In the case of `CCN(CCO)CCCOc1ccc2c(Nc3cc(CC(=O)Nc4cccc(F)c4)[nH]n3)ncnc2c1` [AZD2811] + C=CCn1c(=O)c2cnc(Nc3ccc(N4CCN(C)CC4)cc3)nc2n1-c1cccc(C(C)(C)O)n1 [AZD1775] (first compound max 1 µM, partner max 1 µM), the values for the Bliss excess in experiment [1] and in [2] were -0.0471 and -0.0113, respectively. The “combination Emax” value in [3] stood at 0.245; in experiment [4], 0.855; in [5] it was 0.655; in experiment [6], 0.558; in experiment [7], 0.839; in experiment [8], 0.171. In addition, the “combination Emax” value was determined as 0.344 in [9], 0.456 in experiment [10], 0.835 in [11] and 0.208 in [12].
As for `COc1cccc2c1C(=O)c1c(O)c3c(c(O)c1C2=O)C[C@@](O)(C(=O)CO)C[C@@H]3O[C@H]1C[C@H](N)[C@H](O)[C@H](C)O1` [Doxorubicin] + Cc1cc2ncnn2cc1Nc1ncc2c(n1)n(C1CCOCC1)c(=O)n2C [AZD7648] (first compound max 1 µM, 7x7, partner max 10 µM), the Bliss excess in [1] worked out at 0.0463; in experiment [2], 0.0859. For the same molecule, the “combination Emax” value in [3] came out at 0.76; in experiment [4] it was 0.854; in [5], 0.91; in experiment [6], 0.735; in [7], 0.784; in experiment [8], 0.443. Moreover, the “combination Emax” value in experiment [9] amounted to 0.721; in [10], 0.588; in experiment [11] it was 0.688; in [12] it was 0.146.
Take `COc1cccc(OCCCN)c1-c1cc(Nc2cnc(C#N)cn2)n[nH]1` [Prexasertib] + C[C@@H]1COCCN1C2=NC(=NC(=C2)C3(CC3)[S@](=N)(=O)C)C4=C5C=CNC5=NC=C4 [AZD6738] (first compound max 1 µM, 7x7, partner max 10 µM): the Bliss excess was 0.076 in experiment [1] and -0.0198 in experiment [2]. Further, the “combination Emax” value in experiment [3] is 0.475; in experiment [4] it was 0.989; in experiment [5], 0.946; in [6], 0.726; in experiment [7], 0.808; in experiment [8], 0.652. Besides, the “combination Emax” value worked out at 0.773 in experiment [9], 0.63 in experiment [10], 0.869 in [11] and 0.615 in experiment [12].
Turning to `Cc1cc2ncnn2cc1Nc1ncc2c(n1)n(C1CCOCC1)c(=O)n2C` [AZD7648] + CN(C)CCCOc1ccc(-c2ccc3ncc4c(c3c2)n(C2CCOCC2)c(=O)n4C)cn1 [AZD0156] (first compound max 10 µM, 7x7, partner max 1 µM), the Bliss excess is -0.0092 in experiment [1] and 0.0504 in experiment [2]. In addition, the “combination Emax” value came to 0.333 in experiment [3]; 0.312 in experiment [4]; 0.391 in experiment [5]; 0.35 in [6]; 0.482 in [7]; 0.147 in experiment [8]. Moreover, the “combination Emax” value in [9] was 0.234; in experiment [10] it was 0.291; in experiment [11] it was 0.483; in experiment [12], 0.19.
